Laboratory results published in ChEMBL document CHEMBL3603759, “Ribosome-targeting antibiotics as inhibitors of oncogenic microRNAs biogenesis: Old scaffolds for new perspectives in RNA targeting” (Bioorg Med Chem, 2015).
Activity calls are given as the source filed them. The rule behind the calls is not given here.

Legend:
[1] = Binding affinity to 5'-FAM-pre-miR-372 (unknown origin) after 4 hrs by fluorescence assay in presence of 100-fold excess of 15-mer DNA
[2] = Binding affinity to 5'-FAM-pre-miR-372 (unknown origin) after 4 hrs by fluorescence assay
[3] = Inhibition of pre-miR-21 (unknown origin) cleavage assessed as reduction of oncogenic microRNAs biogenesis at 200 uM by measuring fluorescence every minute for 5 hrs using 5'-FAM,3'-dabcyl-pre-miRNA beacons by FRET assay in presence of recombinant Dicer
[4] = Inhibition of pre-miR-17 (unknown origin) cleavage assessed as reduction of oncogenic microRNAs biogenesis at 200 uM by measuring fluorescence every minute for 5 hrs using 5'-FAM,3'-dabcyl-pre-miRNA beacons by FRET assay in presence of recombinant Dicer
[5] = Inhibition of pre-miR-373 (unknown origin) cleavage assessed as reduction of oncogenic microRNAs biogenesis by measuring fluorescence every minute for 5 hrs using 5'-FAM,3'-dabcyl-pre-miRNA beacons by FRET assay in presence of recombinant Dicer
[6] = Binding affinity to 5'-FAM-pre-miR-373 (unknown origin) after 4 hrs by fluorescence assay
[7] = Inhibition of pre-miR-372 (unknown origin) cleavage assessed as reduction of oncogenic microRNAs biogenesis at 200 uM by measuring fluorescence every minute for 5 hrs using 5'-FAM,3'-dabcyl-pre-miRNA beacons by FRET assay in presence of recombinant Dicer
[8] = Ratio of Kd for 5'-FAM-pre-miR-372 (unknown origin) in presence of 100-fold excess of 15-mer DNA to Kd for 5'-FAM-pre-miR-372 (unknown origin)
[9] = Binding affinity to 5'-FAM-pre-miR-17 (unknown origin) after 4 hrs by fluorescence assay
[10] = Binding affinity to 5'-FAM-pre-miR-372 (unknown origin) after 4 hrs by fluorescence assay in presence of 100-fold excess of Escherichia coli tRNA
[11] = Binding affinity to 5'-FAM-pre-miR-372 (unknown origin) assessed as change in total free energy by thermodynamic assay
[12] = Inhibition of pre-miR-21 (unknown origin) cleavage assessed as reduction of oncogenic microRNAs biogenesis by measuring fluorescence every minute for 5 hrs using 5'-FAM,3'-dabcyl-pre-miRNA beacons by FRET assay in presence of recombinant Dicer
[13] = Inhibition of pre-miR-372 (unknown origin) cleavage assessed as reduction of oncogenic microRNAs biogenesis by measuring fluorescence every minute for 5 hrs using 5'-FAM,3'-dabcyl-pre-miRNA beacons by FRET assay in presence of recombinant Dicer
[14] = Ratio of Kd for 5'-FAM-pre-miR-372 (unknown origin) in presence of 100-fold excess of Escherichia coli tRNA to Kd for 5'-FAM-pre-miR-372 (unknown origin)
[15] = Inhibition of pre-miR-373 (unknown origin) cleavage assessed as reduction of oncogenic microRNAs biogenesis at 200 uM by measuring fluorescence every minute for 5 hrs using 5'-FAM,3'-dabcyl-pre-miRNA beacons by FRET assay in presence of recombinant Dicer
[16] = Inhibition of pre-miR-17 (unknown origin) cleavage assessed as reduction of oncogenic microRNAs biogenesis by measuring fluorescence every minute for 5 hrs using 5'-FAM,3'-dabcyl-pre-miRNA beacons by FRET assay in presence of recombinant Dicer

Row | Molecule | Kd [1] [µM] | Kd ([2]; read-out: Kd) [µM] | inhibition [3] | inhibition [4] | IC50 [5] [µM] | Kd ([6]; read-out: Kd) [µM] | inhibition [7] | Ratio [8] | Kd ([9]; read-out: Kd) [µM] | Kd [10] [µM] | Activity [11] [%] | IC50 [12] [µM] | IC50 [13] [µM] | Ratio [14] | inhibition [15] | Kd [2] | Kd [6] | Kd [9] | IC50 [16] [µM]
1 | CN[C@@H]1[C@@H](O[C@H]2O[C@H](CO)[C@@H](N)[C@H](O)[C@H]2O)OC2C[C@@H](N)[C@@H](O[C@H]3[C@H](O)[C@@H](O)[C@H](N)C[C@@H]3N)OC2[C@@H]1O (some centres undefined) [APRAMYCIN] | 6.55 | 2.99 | 60% | 60% | 335 | 4.2 | 60% | 2.2 | 1.03 | 9.05 | 72 | 170 | 162 | 3 | 60% |  |  |  | 
2 | CC[C@H]1OC(=O)[C@H](C)[C@@H](O[C@H]2C[C@@](C)(OC)[C@@H](O)[C@H](C)O2)[C@H](C)[C@@H](O[C@@H]2O[C@H](C)C[C@H](N(C)C)[C@H]2O)[C@](C)(O)C[C@@H](C)CN(C)[C@H](C)[C@@H](O)[C@]1(C)O [AZITHROMYCIN] | 7.43 | 1.62 |  |  |  | 1.41 |  | 4.5 | 1.63 | 1.9 |  |  |  | 1.2 |  |  |  |  | 
3 | NC[C@H]1O[C@H](O[C@H]2[C@H](O)[C@@H](O[C@H]3O[C@H](CO)[C@@H](O)[C@H](N)[C@H]3O)[C@H](N)C[C@@H]2N)[C@H](N)[C@@H](O)[C@@H]1O [BEKANAMYCIN] |  |  | inactive | inactive |  |  | inactive |  |  |  |  |  |  |  | inactive | Not Active | Not Active | Not Active | 
4 | O=C(N[C@H](CO)[C@H](O)c1ccc([N+](=O)[O-])cc1)C(Cl)Cl [CHLORAMPHENICOL] |  |  |  |  |  |  |  |  |  |  |  |  |  |  |  | Not Active | Not Active | Not Active | 
5 | CCC[C@@H]1C[C@@H](C(=O)N[C@@H]([C@H]2O[C@H](SC)[C@H](O)[C@@H](O)[C@H]2O)[C@H](C)Cl)N(C)C1 [CLINDAMYCIN] |  |  |  |  |  |  |  |  |  |  |  |  |  |  |  | Not Active | Not Active | Not Active | 
6 | C[C@H]1c2cccc(O)c2C(=O)C2=C(O)[C@]3(O)C(=O)C(C(N)=O)=C(O)[C@@H](N(C)C)[C@@H]3[C@@H](O)[C@@H]21 [DOXYCYCLINE] | 1.62 | 0.908 | 20% | 20% | 366 | 1.42 | 20% | 1.8 | 0.94 | 2 | 78 | 555 | 567 | 2 | 20% |  |  |  | 380
7 | CC[C@H]1OC(=O)[C@H](C)[C@@H](O[C@H]2C[C@@](C)(OC)[C@@H](O)[C@H](C)O2)[C@H](C)[C@@H](O[C@@H]2O[C@H](C)C[C@H](N(C)C)[C@H]2O)[C@](C)(O)C[C@@H](C)C(=O)[C@H](C)[C@@H](O)[C@]1(C)O [ERYTHROMYCIN] | 30.7 | 6.11 |  |  |  | 6.51 |  | 5 | 27.4 | 8.73 |  |  |  | 1.4 |  |  |  |  | 
8 | CCC[C@@H]1C[C@@H](C(=O)N[C@@H]([C@H]2O[C@H](SC)[C@H](O)[C@@H](O)[C@H]2O)[C@@H](C)O)N(C)C1 [LINCOMYCIN] |  |  |  |  |  |  |  |  |  |  |  |  |  |  |  | Not Active | Not Active | Not Active | 
9 | CC(=O)NC[C@H]1CN(c2ccc(N3CCOCC3)c(F)c2)C(=O)O1 [LINEZOLID] |  |  |  |  |  |  |  |  |  |  |  |  |  |  |  | Not Active | Not Active | Not Active | 
10 | NC[C@H]1O[C@H](O[C@H]2[C@H](O)[C@@H](O)[C@H](N)C[C@@H]2N)[C@H](N)[C@@H](O)[C@@H]1O [NEAMINE] | 248 | 160 | 10% | 10% | 751 | 187 | 10% | 1.5 | 24.9 | 394 | 72 |  | 298 | 2.5 | 10% |  |  |  | 
11 | CN(C)[C@@H]1C(O)=C(C(N)=O)C(=O)[C@@]2(O)C(O)=C3C(=O)c4c(O)cccc4[C@@](C)(O)[C@H]3[C@H](O)[C@@H]12 [OXYTETRACYCLINE] | 10.2 | 6.15 | 10% | 10% | 491 | 5.2 | 10% | 1.6 | 6.22 | 8.01 | 90 | 613 | 657 | 1.3 | 10% |  |  |  | 392
12 | NC[C@@H]1O[C@H](O[C@H]2[C@@H](O)[C@H](O[C@@H]3[C@@H](O)[C@H](N)C[C@H](N)[C@H]3O[C@H]3O[C@H](CO)[C@@H](O)[C@H](O)[C@H]3N)O[C@@H]2CO)[C@H](N)[C@@H](O)[C@@H]1O [PAROMOMYCIN] | 167 | 138 | 10% | 10% | 345 | 91.2 | 10% | 1.2 | 44 | 133 | 61 | 543 | 773 | 1 | 10% |  |  |  | 
13 | COc1ccc(C[C@H](N)C(=O)N[C@H]2[C@@H](O)[C@H](n3cnc4c(N(C)C)ncnc43)O[C@@H]2CO)cc1 [PUROMYCIN] |  | 11.8 |  |  |  | 12.7 |  |  | 5.85 |  |  |  |  |  |  |  |  |  | 
14 | CN[C@@H]1[C@H](O)[C@H](NC)[C@H]2O[C@@]3(O)C(=O)C[C@@H](C)O[C@H]3O[C@@H]2[C@H]1O [SPECTINOMYCIN] |  |  | inactive | inactive |  |  | inactive |  |  |  |  |  |  |  | inactive | Not Active | Not Active | Not Active | 
15 | CN[C@@H]1[C@H](O[C@H]2[C@H](O[C@H]3[C@H](O)[C@@H](O)[C@H](N=C(N)N)[C@@H](O)[C@@H]3N=C(N)N)O[C@@H](C)[C@]2(O)C=O)O[C@@H](CO)[C@H](O)[C@H]1O [STREPTOMYCIN] | 48.2 | 26.8 | inactive | inactive |  | 45 | inactive | 1.8 | 18.5 | 61.1 | 47 | 688 | 678 | 2 | inactive |  |  |  | 
16 | GENTAMICIN [listing 1 of 2 here] | 8.1 | 3.67 |  |  | 159 | 6.64 |  |  | 4.98 | 4.2 |  | 242 | 667 |  |  |  |  |  | 540
17 | GENTAMICIN [listing 2 of 2 here] |  |  | 10% | 10% |  |  | 10% | 4 |  |  | 63 |  |  | 1.1 | 10% |  |  |  | 
